Consider 4 compounds from PMC11504387, “Synthesis and Biological Activity Assessment of 2-Styrylbenzothiazoles as Potential Multifunctional Therapeutic Agents” (Antioxidants, 2024).

One series concerns the target T1, Human recombinant 5-LO (Homo sapiens, UniProt P09917).
T1 construct: made in house
T1 sequence (P09917 1-674): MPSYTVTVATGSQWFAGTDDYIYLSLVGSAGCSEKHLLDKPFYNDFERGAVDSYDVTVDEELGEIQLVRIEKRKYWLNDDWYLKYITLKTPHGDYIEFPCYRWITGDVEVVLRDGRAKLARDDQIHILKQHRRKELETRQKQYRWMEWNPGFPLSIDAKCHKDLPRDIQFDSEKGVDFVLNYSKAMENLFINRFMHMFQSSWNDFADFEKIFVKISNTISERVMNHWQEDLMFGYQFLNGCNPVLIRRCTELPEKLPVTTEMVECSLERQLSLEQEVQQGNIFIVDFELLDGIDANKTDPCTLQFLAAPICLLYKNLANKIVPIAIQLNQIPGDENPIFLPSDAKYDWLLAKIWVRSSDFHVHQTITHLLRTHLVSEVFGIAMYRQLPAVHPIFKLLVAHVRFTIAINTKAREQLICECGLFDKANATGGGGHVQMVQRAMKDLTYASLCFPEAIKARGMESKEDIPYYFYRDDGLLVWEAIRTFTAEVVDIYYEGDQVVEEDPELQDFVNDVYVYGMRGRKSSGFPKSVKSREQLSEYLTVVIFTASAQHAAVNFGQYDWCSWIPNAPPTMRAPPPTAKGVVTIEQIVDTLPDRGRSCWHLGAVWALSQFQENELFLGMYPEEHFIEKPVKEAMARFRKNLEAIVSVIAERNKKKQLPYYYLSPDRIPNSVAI
Put plainly: 5-Lipoxygenase inhibition in a cell-free assay. The format is biochemical. The note with it: 3 µM; % relative to vehicle (DMSO); read-out: 5-LO Residual Activity (Cell-Free). As to the method: Human recombinant 5-LO was expressed and isolated as described before, and immediately used for activity assays after isolation. The 5-LO (0.5 µg, in 1 mL PBS pH 7.4 containing 1 mM EDTA) was pre-incubated with the test compounds for 10 min at 4 °C and pre-warmed for 30 s at 37 °C. 5-LO product formation was initiated by sequential addition of 1 mM CaCl2 and 20 μM arachidonic acid. After 10 min at 37 °C, the reaction was terminated by addition of 1 mL ice-cold methanol containing 200 ng PGB1 as internal standard. Formed 5-LO products (trans-LTB4, epi-trans-LTB4, and 5-HETE) were extracted using Sep-Pak C18 35 cc Vac Cartridges and analysed by UPLC-MS/MS as previously described.

Series [1] has as its target T2, 5-LO in A23187-stimulated human PMNL (Homo sapiens, UniProt P09917).
T2 construct: Freshly isolated PMNL (1 × 10^6 cells/mL) in PBS buffer pH 7.4; endogenous in cells; host or cells: primary human PMNL (neutrophils) isolated from blood
T2 sequence (P09917 1-674): T1 sequence (P09917 1-674)
Put plainly: 5-Lipoxygenase inhibition in a cell-based assay (PMNL). The note with it: PMNL; 3 µM; % relative to vehicle (DMSO); read-out: 5-LO Residual Activity (PMNL). As to the method:
Following blood density centrifugation and cell population separation, PMNL was recovered from the pellet after hypotonic lysis of erythrocytes. Freshly isolated PMNL (1 × 10^6 cells/mL) in PBS buffer pH 7.4 with glucose (1 mg/mL) and CaCl2 (1 mM) was pre-incubated with the test compounds for 10 min at 37 °C. Then, 5-lipoxygenase (5-LO) product formation was started by addition of 2.5 μM Ca^2+-ionophore A23187 plus 20 μM arachidonic acid. The reaction was stopped after 10 min at 37 °C with 1 mL of ice-cold methanol containing 200 ng PGB1 as internal standard. Major 5-LO products (LTB4, trans-LTB4, epi-trans-LTB4, and 5-HETE) were extracted by SPE using Sep-Pak C18 35 cc Vac Cartridges (Waters, Milford, MA, USA) and analysed by UPLC-MS/MS as described by Pein et al..

Series [2] concerns human melanoma Colo38 cells. Briefly: Cell growth inhibition assay, Colo38. The settings on record: 24 h incubation; mean ± SD. It counts as cell-based. As for the experimental part: Cell growth inhibition analyses were performed on human melanoma Colo38 cells and skin HaCat keratinocytes. Human melanoma Colo38 cells were kindly given by Dr. Patrizio Giacomini (Laboratory of Immunology, Regina Elena Institute, Rome, Italy). HaCat cells were obtained from Istituto Zooprofilattico Sperimentale della Lombardia e dell’Emilia-Romagna, Brescia, Italy. Cells were seeded at 40,000 cells/mL and 25,000 cells/mL, respectively. Colo38 cells were maintained in RPMI 1640, supplemented with 10% foetal bovine serum (FBS), penicillin (100 Units/mL), and streptomycin (100 µg/mL). HaCat cells were maintained in DMEM, supplemented with 10% fatal bovine serum (FBS), penicillin (100 Units/mL), streptomycin (100 µg/mL) and glutamine (2 mM); the incubation was performed at 37 °C in a 5% CO2 atmosphere. Compounds were dissolved in DMSO to obtain 50 mM stock solutions and diluted before cell treatment in MeOH. The tested compounds were added at serial dilutions to the cell cultures (from 0.1 to 100 µM) and incubated for 24 h further. Cells were then harvested, suspended in physiological solution, and counted with a Z2 Coulter Counter (Coulter Electronics, Hialeah, FL, USA). The number of cells/mL and the IC50 values were determined when untreated cells were in the log phase of cell growth. Samples of vehicles and untreated cells were included in each plate. Cisplatin was used as positive control for the HaCat cells, while N1-(4-arylidene)-1H-(2-OH-4-N(Et)2-phenyl)-[d]imidazole-2-carbohydrazide was used as positive control for the Colo38 cell line.

Another series concerns PMNL. Put plainly: ROS production in PMA-stimulated PMNL. The note with it: 10 µM, mean ± SD. The format is cell-based, human. As for the experimental part:
After 10 min at 37 °C, PMA (0.1 μM) was added. The fluorescence emission at 530 nm was measured after excitation at 485 nm in a thermally controlled (37 °C) NOVOstar microplate reader (BMG Lab technologies GmbH, Offenburg, Germany). […] ROS generation was induced by phorbol-12-myristate-13-acetate (PMA), a widely recognized agent for stimulating ROS production in neutrophils and enhancing endogenous superoxide formation. Diphenyleneiodonium (DPI, 10 µM), a NADPH oxidase inhibitor, served as a positive control. Through this assay, we could assess the potential interaction of our compounds with intracellular ROS production and their capacity to act as radical scavengers within a relevant cellular context. Furthermore, the outcomes provided additional insights into their inhibitory mechanism and helped to determine whether they act directly or non-specifically, as there is evidence that an impact on the ROS levels in PMNL could be translated to modulation of 5-LO activity in the cellular environment. […] With those data in hand, together with 5-LO inhibition assay outcomes, a direct inhibition of the enzyme stands as the best fitting option regarding the mechanism of action of compounds BZTst4 and BZTst6. […] This phenomenon was not further explored because such investigation was beyond the scope of this work.

Series [3] can be described thus: Photostability of O/W emulsions under solar simulator. The settings on record: O/W emulsion on PMMA. It counts as physicochemical. As to the method:
Oil-in-water (O/W) emulsions containing individual filters were spread on PMMA sheet and irradiated with a solar simulator by applying different doses of UVA equivalent to an erythema effective radiant exposure of 100 J/m^2. Photostability was assessed by analysing the spectral transmittance, before and after irradiation, of the sunscreen thin film, measured before and after exposure from 290 to 400 nm. The residual percentages of SPF in vitro (%SPFeff.) and UVAPF (%UVAPFeff.) were calculated according to Equations (6) and (7), respectively. When the %SPFeff. and %UVAPFeff. are greater than or equal to 80, according to current regulations, a filter can be considered photostable [37].
To evaluate the effectiveness and safety profile of a sunscreen formulation, it is necessary to provide data on its photostability. Photodegradation data can be obtained by recording the pre- and post-irradiation transmittance spectra of PMMA plates with finger-coat formulations exposed to a dose of UVA capable of causing erythema. This method, established by Garoli et al., is used to determine photostability. The sun protection layer’s transmission in the range of 290–400 nm is recorded before and after exposure to sunlight, following the protocol.
The residual percentages of SPF in vitro (%SPFeff.) and UVAPf (%UVAPfeff.) were calculated using Equations (6) and (7) and are listed in Table 4. A filter can be classified as photostable if the %SPFeff. is greater than or equal to 80, according to regulatory standards. %SPFeff. = in vitro SPFafter/in vitro SPFbefore × 100(6) %UVAPfeff. = UVAPfafter/UVAPfbefore × 100(7) where SPFafter and SPFbefore are the SPF values calculated from the software after and before solar irradiation, and UVAPfafter and UVAPfbefore are the UVAPf values calculated from the software after and before solar irradiation.

Series [4] is described as follows: UV spectrophotometric analysis of compounds in solution. It counts as physicochemical. The note with it: at ʎmax, Lambert–Beer equation. As to the method: The synthesized compounds were solubilised in DMSO and diluted in MeOH, and the absorbance of the 10 µg/mL solution was measured between 290–400 nm with a UV-Vis spectrophotometer (SHIMADZU UV-2600 240 V, 1 cm quartz cell at 1 nm intervals). The absorbance at wavelength λ is related to the transmittance T(λ) via the Equation (1): A(λ) = −Log[T(λ)](1) where T(λ) is the fraction of incident irradiance transmitted by the sample. […]
The molar extinction coefficient was calculated with the absorbance recorded at the ʎmax applying the Lambert–Beer equation.

Series [5] can be described thus: In vitro filtering parameters of O/W sunscreen formulation on PMMA plates. The note with it: 3% in O/W sunscreen formulation. As for the experimental part: Synthesized compounds were incorporated at 3% concentration in a suitable oil-in-water (O/W) emulsion for cosmetic use as sunscreen.
INCI: Aqua, Glycerin, Xanthan Gum, Phenoxyethanol (and) Ethylhexylglycerin, Tribehenin PEG-20 Esters, Cetearyl Alcohol, Dicaprylyl Carbonate, PPG 26 Buteth-26 (and) PEG 40 Hydrogenated Castor Oil, C12-15 Alkyl Benzoate, Sodium hydroxide (sol. 10%).
A protocol previously reported by us was adopted. Briefly, 32.5 mg of each compound formulation was spread on the rough surface of 5 × 5 cm^2 PMMA plates in the form of small drops of approximately equal mass, in triplicate. The plates were placed in the dark for 15–30 min to allow the formation of a sun-stabilised standard layer and then inserted into the instrument and measured at five different points on each plate (UV transmittance range 290–400 nm). The blank was a plate coated with 32.5 mg glycerine, chosen for its non-fluorescence and UV transparency. In addition, in vitro SPF, UVAPF and ʎc values were calculated according to Equations (2)–(4) above. To evaluate the booster effect of selected synthesized compounds, they were incorporated at 3% concentration in an oil-in-water (O/W) sunscreen formulation with fixed SPF and UVAPf values (30 and 10, respectively).
Aiming to create compounds with diverse biological activities, the synthesized 2-styrylbenzothiazoles were examined for potential applications in sunscreens. Each candidate was incorporated into a standard cosmetic formulation at a concentration of 3% and subjected to photoprotective efficacy testing using the Diffey–Robson method. The formulation comprised an oil-in-water (O/W) emulsion suitable for sunscreen use, with each benzothiazole derivative being heat-solubilized in the oil phase and then dispersed into the emulsion using a turbo emulsifier. The mixture was then cooled, and the emulsion was spread onto polymethylmethacrylate (PMMA) plates before recording the transmittance spectra. The SPF value, UVA protection factor value (UVAPF), the […], and the critical wavelength (λc) were determined from the transmittance spectra using SPF calculator software and are presented in Table 3. These parameters are essential for evaluating the efficacy of potential sunscreen products.

In the case of `CC(c1cc2ccccc2s1)N(O)C(N)=O` (centres unmarked) [Zileuton, zileuton, reference compound], the remaining activity at 3 µM at Human recombinant 5-LO is 28.6 ± 7.38%; in series [1], 31.3 ± 12.7%.
“N^1-(4-arylidene)-1H-(2-OH-4-N(Et)2-phenyl)-[d]imidazole-2-carbohydrazide [Cmp 13, reference compound]” displayed an IC50 in series [2] of 700 ± 60 nM.
As to `c1ccc2c(c1)[I+]c1ccccc1-2` [DPI, Diphenyleneiodonium, reference compound], the “ROS Production (% of Control)” value in the series on PMNL was 16.44 ± 2.14 % of control.
`O=S(=O)(O)c1ccc2[nH]c(-c3ccccc3)nc2c1` [PBSA, 2-Phenyl-1H-Benzimidazole-5-Sulphonic Acid, reference compound]: the “%UVAPfeff.” value in series [3] (residual UVAPF after solar irradiation) is on record as 100.00%. For the same compound, in series [3] (residual in vitro SPF after solar irradiation), the “%SPFeff.” value is on record as 103.66%. Moreover, the “Ɛ (molar extinction coefficient)” value in series [4] is on record as 23,881.86 dm^3 mol^−1 cm^−1. In series [5], the SPF was 1.91, the UVA/UVB is 0.67, the UVAPF came out at 1.13 and the “ʎc (critical wavelength)” value was determined as 357 nm.

As a reminder, the IC50 is the concentration that inhibits the measured activity by half. Higher therefore signals a need for much substance.
